Experimental data published in PubChem BioAssay (NCI).
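Protocol summary: plate cells (96-well), add compound at 5 concentrations, incubate 48 h, interpolate endpoints linearly. TGI marks complete inhibition of growth.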 Where a SMILES comes first, the peptide text is derived from it. [ ]: non-standard residue; d: D form. Phe(4-NO2) = N[CH](Cc1ccc([N+](=O)[O-])cc1)C(=O)O

What was measured:
Test in all cases: growth of human tumour cells (NCI), 48 h
[1] = test system: SK-MEL-2 melanoma
[2] = test system: U251 CNS
[3] = test system: UACC-62 melanoma
[4] = test system: LOX IMVI melanoma
[5] = test system: DU-145 prostate
[6] = test system: SW-620 colon
[7] = test system: HT29 colon
[8] = test system: NCI-H460 lung
[9] = test system: MOLT-4 leukemia
[10] = test system: IGROV1 ovarian
[11] = test system: M14 melanoma
[12] = test system: HCT-15 colon
[13] = test system: OVCAR-5 ovarian
[14] = test system: K-562 leukemia
[15] = test system: MDA-MB-231 breast
[16] = test system: SK-OV-3 ovarian
[17] = test system: SNB-19 CNS
[18] = test system: HS 578T breast
[19] = test system: HOP-62 NSCLC
[20] = test system: UO-31 renal

Question: What does the source list for O[C@H]1[C@H](O)[C@@H](O)[C@@]2(O)CC[C@@H]1N2?
Answer: TGI [1]: > 100 µM; TGI [2]: > 100 µM; TGI [3]: > 100 µM; TGI [4]: > 100 µM; TGI [5]: > 100 µM; TGI [6]: > 100 µM; TGI [7]: > 100 µM; TGI [8]: > 100 µM; TGI [9]: > 100 µM; TGI [10]: > 100 µM; TGI [11]: > 100 µM; TGI [12]: > 100 µM; TGI [13]: > 100 µM; TGI [14]: > 100 µM; TGI [15]: > 100 µM; TGI [16]: > 100 µM; TGI [17]: > 100 µM; TGI [18]: > 100 µM; TGI [19]: > 100 µM; TGI [20]: > 100 µM

Question: How did the TGI [1] turn out when CC(NC(=O)C(Cc1ccc([N+](=O)[O-])cc1)NC(=O)C(N)CCCCN)C(=O)NC(Cc1ccc([N+](=O)[O-])cc1)C(N)=O (stereo not given) (H-K[Phe(4-NO2)]A[Phe(4-NO2)]-NH2; configuration not given here) was run?
Answer: > 86.6 µM

Question: And the TGI [2]?
Answer: > 100 µM

Question: And the TGI [3]?
Answer: > 100 µM

Question: What about the TGI [4] of the same compound?
Answer: > 100 µM

Question: What about the TGI [5] of the same compound?
Answer: > 100 µM

Question: And the TGI [6]?
Answer: > 100 µM

Question: What about the TGI [7] of the same compound?
Answer: > 100 µM

Question: What about the TGI [8] of the same compound?
Answer: > 100 µM

Question: What about the TGI [9] of the same compound?
Answer: > 59.4 µM

Question: And the TGI [10]?
Answer: > 100 µM

Question: What about the TGI [11] of the same compound?
Answer: > 74.3 µM

Question: What about the TGI [12] of the same compound?
Answer: > 100 µM

Question: And the TGI [13]?
Answer: > 100 µM

Question: And the TGI [14]?
Answer: > 55.3 µM

Question: What about the TGI [15] of the same compound?
Answer: > 69.9 µM

Question: What about the TGI [16] of the same compound?
Answer: > 100 µM

Question: What about the TGI [17] of the same compound?
Answer: > 100 µM

Question: What about the TGI [18] of the same compound?
Answer: 99.6 µM

Question: And the TGI [19]?
Answer: > 52.1 µM

Question: What about the TGI [20] of the same compound?
Answer: > 66.6 µM

Question: What does the source list for CN(C)CCNC(=O)c1cccc2c(NC(CS)C(=O)O)c3ccccc3[n+](C)c12 (stereo not given)?
Answer: TGI [1]: > 100 µM; TGI [2]: > 100 µM; TGI [3]: > 100 µM; TGI [4]: > 100 µM; TGI [5]: > 100 µM; TGI [6]: > 100 µM; TGI [7]: > 100 µM; TGI [8]: > 100 µM; TGI [9]: > 100 µM; TGI [10]: > 100 µM; TGI [11]: > 100 µM; TGI [12]: > 100 µM; TGI [13]: > 100 µM; TGI [14]: > 100 µM; TGI [15]: > 100 µM; TGI [16]: > 100 µM; TGI [17]: > 100 µM; TGI [18]: > 100 µM; TGI [19]: > 100 µM; TGI [20]: > 100 µM

Question: Which TGI [1] does the source give for COC(=O)C1=C(OC(=O)/C(=C/c2ccccc2)c2ccc(Cl)cc2)C(C(=O)OC)[C@@]2(O)[C@@H](C(=O)OC)[C@H](C)C[C@@H]1[C@@H]2C(=O)OC (stereo not given in full) here?
Answer: > 100 µM

Question: And the TGI [2]?
Answer: > 100 µM

Question: And the TGI [3]?
Answer: > 100 µM

Question: What about the TGI [4] of the same compound?
Answer: > 100 µM

Question: What about the TGI [5] of the same compound?
Answer: > 100 µM

Question: What about the TGI [6] of the same compound?
Answer: > 100 µM

Question: What about the TGI [7] of the same compound?
Answer: > 100 µM

Question: And the TGI [8]?
Answer: > 100 µM

Question: What about the TGI [9] of the same compound?
Answer: > 100 µM

Question: And the TGI [10]?
Answer: > 100 µM

Question: What about the TGI [11] of the same compound?
Answer: > 100 µM

Question: What about the TGI [12] of the same compound?
Answer: > 100 µM

Question: What about the TGI [13] of the same compound?
Answer: > 100 µM

Question: And the TGI [14]?
Answer: > 100 µM

Question: And the TGI [15]?
Answer: > 100 µM

Question: And the TGI [16]?
Answer: > 100 µM

Question: And the TGI [17]?
Answer: > 100 µM

Question: And the TGI [18]?
Answer: > 100 µM

Question: And the TGI [19]?
Answer: > 100 µM

Question: What about the TGI [20] of the same compound?
Answer: > 100 µM

Question: For COC(=O)C(C)(C)[C@@H]1OC(=O)N(S(=O)(=O)c2c(C)cc(C)cc2C)[C@H]1C(C)C, which TGI [1] is on record?
Answer: > 100 µM

Question: What about the TGI [2] of the same compound?
Answer: > 100 µM

Question: What about the TGI [3] of the same compound?
Answer: > 100 µM

Question: What about the TGI [4] of the same compound?
Answer: > 100 µM

Question: And the TGI [5]?
Answer: > 100 µM

Question: And the TGI [6]?
Answer: > 100 µM

Question: And the TGI [7]?
Answer: > 100 µM

Question: What about the TGI [8] of the same compound?
Answer: > 100 µM

Question: What about the TGI [9] of the same compound?
Answer: > 100 µM

Question: And the TGI [10]?
Answer: > 100 µM

Question: And the TGI [11]?
Answer: > 100 µM

Question: What about the TGI [12] of the same compound?
Answer: > 100 µM

Question: What about the TGI [13] of the same compound?
Answer: > 100 µM

Question: And the TGI [14]?
Answer: > 100 µM

Question: And the TGI [15]?
Answer: > 100 µM

Question: And the TGI [16]?
Answer: > 100 µM

Question: What about the TGI [17] of the same compound?
Answer: > 100 µM

Question: And the TGI [18]?
Answer: > 100 µM

Question: And the TGI [19]?
Answer: > 100 µM

Question: What about the TGI [20] of the same compound?
Answer: > 100 µM

Question: How did the TGI [1] turn out when Cc1occc1C(=S)Nc1ccc(Cl)c(/C=N/OC(C)(C)C)c1 was run?
Answer: 39.5 µM

Question: And the TGI [2]?
Answer: 28.5 µM

Question: And the TGI [3]?
Answer: 28 µM

Question: And the TGI [4]?
Answer: 29.2 µM

Question: And the TGI [5]?
Answer: 48.7 µM

Question: What about the TGI [6] of the same compound?
Answer: 36.9 µM

Question: And the TGI [7]?
Answer: 28.5 µM

Question: And the TGI [8]?
Answer: 29.7 µM

Question: What about the TGI [9] of the same compound?
Answer: 31.8 µM

Question: What about the TGI [10] of the same compound?
Answer: > 56.3 µM

Question: And the TGI [11]?
Answer: 40.9 µM

Question: What about the TGI [12] of the same compound?
Answer: 31.2 µM

Question: What about the TGI [13] of the same compound?
Answer: 31.3 µM

Question: And the TGI [14]?
Answer: > 100 µM

Question: What about the TGI [15] of the same compound?
Answer: 42.3 µM

Question: And the TGI [16]?
Answer: 58.7 µM

Question: And the TGI [17]?
Answer: 40.6 µM

Question: And the TGI [18]?
Answer: 51.6 µM

Question: What about the TGI [19] of the same compound?
Answer: 45.9 µM

Question: What about the TGI [20] of the same compound?
Answer: 27 µM

Question: Which TGI [1] does the source give for O=C(O)C(C(=O)O)P(=S)(S)c1ccccc1 (stereo not given) here?
Answer: > 100 µM

Question: And the TGI [2]?
Answer: > 100 µM

Question: And the TGI [3]?
Answer: > 100 µM

Question: What about the TGI [4] of the same compound?
Answer: > 100 µM

Question: And the TGI [5]?
Answer: > 100 µM

Question: And the TGI [6]?
Answer: > 100 µM

Question: And the TGI [7]?
Answer: > 100 µM

Question: What about the TGI [8] of the same compound?
Answer: > 100 µM

Question: What about the TGI [9] of the same compound?
Answer: > 100 µM

Question: What about the TGI [10] of the same compound?
Answer: > 100 µM

Question: And the TGI [11]?
Answer: > 100 µM

Question: What about the TGI [12] of the same compound?
Answer: > 100 µM

Question: And the TGI [13]?
Answer: > 100 µM

Question: What about the TGI [14] of the same compound?
Answer: > 100 µM

Question: And the TGI [15]?
Answer: > 100 µM

Question: What about the TGI [16] of the same compound?
Answer: > 100 µM

Question: And the TGI [17]?
Answer: > 100 µM

Question: And the TGI [18]?
Answer: > 100 µM

Question: And the TGI [19]?
Answer: > 100 µM

Question: And the TGI [20]?
Answer: > 100 µM
